Tests used:
[1] = test system: HFDPCs; assay: Proliferation of HFDPCs (MTT), Experimental Example 1; type: cell-based, human; settings: 48 hours, vs untreated cells
Text: The activation effect by a glycoside of an oleanane-type triterpenoid was examined using dermal papilla cells of human hair follicles (HFDPCs) which are mesenchymal cells separated from the papilla of the scalp hair follicle of a normal human. As the glycoside of the oleanane-type triterpenoid (which may hereinafter be referred to as “saponin”), arganine D, arganine E, and butyroside D were used. A high proliferation rate of the HFDPCs is correlated with the acceleration of the hair growth cycle.
First, HFDPCs were seeded in a 96-well plate at […] and incubated at 37° C. in a humidified atmosphere of 5% CO2. As a culture medium, a culture medium for hair papilla cell growth to which growth factors (a bovine fetal serum, an insulin, a transferrin, a triiodothyronine, a bovine pituitary extract, or a cyproterone solution) had been added was used.
After 24 hours, the culture medium was exchanged with a culture medium containing each of various concentrations of each saponin, and the cells were incubated for 48 hours.
Subsequently, the cell proliferation was measured using 3-(4,5-dimethyl-thiazol-2-yl)-2,5-diphenyltetrazolium bromide (MTT). Specifically, an MTT reagent (5 mg/mL) was added to the cells and incubated for 8 hours, then 10% sodium dodecyl sulfate (SDS) was added thereto, and the cells were incubated overnight. Thereafter, the absorbance at 570 nm was measured using a microplate reader, and the cell proliferation was quantified as the proportion (%) of the absorbance to an absorbance of the untreated cells. In addition, the survival rate of cells was also measured by a trypan blue exclusion method.

[2] = test system: C3H male mouse; assay: Hair growth promoting effect in vivo, application to depilated dorsal skin, Experimental Example 5; settings: 150 μL of 1% applied to dorsal skin every day for 20 days
Protocol: The oleanane-type triterpenoid was applied to the dorsal skin of a mouse and the hair growth promoting effect was examined. Maslinic acid was used as the oleanane-type triterpenoid. In addition, for comparison, a group in which minoxidil was used and a control group in which only a solvent was applied were prepared.
FIG. 12 is a schematic view showing an experimental schedule. After acclimatization of a C3H male mouse, the dorsal skin was depilated with a shaver and a depilatory cream. Thereafter, 150 μL of 1% minoxidil (n=8), 1% maslinic acid (n=6), or a solvent (n=8) was applied to the mouse in each group every day for 20 days, and the mouse was observed over time.
It is known that the hair cycle of a mouse has three stages of an anagen, a catagen, and a telogen. During the anagen (the 1st day to the 16th day), the hair follicle grows into the deep subcutaneous part. In the catagen (the 17th day to the 19th day), the hair follicle stops growing and regresses to the upper subcutaneous part. In the telogen (the 20th day to the 29th day), the hair shaft is in a state where it can be lost at any time. It is known that the color of the dorsal skin of a mouse changes to pink, gray, and black due to the hair cycle. FIG. 13 is a view showing a change in the color of the dorsal skin of a mouse due to the hair cycle.

[3] = test system: dorsal skin; assay: Gene ontology (GO), GO enrichment and tissue-specific expression analysis of transcriptome, Experimental Example 7; type: in vivo, mouse; settings: 20th day
Protocol: Gene ontology (GO) analysis and GO enrichment analysis were performed based on the results of the transcriptome analysis in Experimental Example 6.
Subsequently, term enrichment analysis of the genes with expression increased specifically with respect to the skin tissue was performed. Using tissue-specific expression analysis (TSEA), genes related to the skin tissue were filtered, and functions that were specifically enriched in the maslinic acid treatment group and the tieghemelin treatment group and were not enriched in the minoxidil treatment group were selected.

[4] = test system: HFDPC; assay: Quantitative real-time RT-PCR of hair growth markers in HFDPC, Experimental Example 3; type: cell-based, human; settings: 48 hours; for expression level of the FGF1 gene in the HFDPC / expression level of the ALPL gene in the HFDPC / expression level of the CTNNB1 gene in HFDPC: vs control
Protocol: The HFDPC was treated with butyroside D, and then the expression of the hair growth marker was confirmed by quantitative real-time RT-PCR.
As the hair growth markers, a CTNNB1 gene (β-catenin), an ALPL gene (alkaline phosphatase), and an FGF1 gene (fiblobrast growth factor 1) were examined. It is known that the β-catenin induces anagen of the hair cycle and promotes the proliferation of keratinocytes. ALPL is a representative hair growth marker in the hair papilla cells. FGF1 is a marker for morphogenesis of hair follicles.
HFDPCs were seeded in a 6-well plate at 5×10^4 cells/well and incubated at 37° C. for 24 hours. Subsequently, the culture medium was removed and exchanged with a culture medium including 0 (Control), 0.5, 5, and 10 nM of butyroside D. In addition, for comparison, cells treated with a culture medium including minoxidil (0.1 μM), which is an existing pharmaceutical product, were also prepared.
Subsequently, after 48 hours, the cells were washed with cold PBS and a total RNA was extracted using an ISOGEN kit (Nippon Gene Co., Ltd.). Next, the total RNA was quantified using a NanoDrop 2000 spectrophotometer (Thermo Fisher Scientific) and quantitative real-time RT-PCR analysis was performed.
First, using a SuperScript III reverse transcription kit (Thermo Fisher Scientific), a cDNA was synthesized from the extracted total RNA by a cycling protocol of 95° C. for 10 minutes, 40 cycles of 95° C. for 15 seconds, and 60° C. for 1 minute.
Subsequently, a real-time PCR was performed using a 7500 Fast Real-Time PCR system (Software 1.3.1, Thermo Fisher Scientific) and TaqMan probes specific for CTNNB1, ALPL, and FGF1. GAPDH was used as an endogenous control and the relative mRNA amount was calculated by applying a 2^−ΔΔCt method by comparison with GAPDH.

[5] = test system: HFDPC; assay: as above; type: cell-based, human; settings: vs 0.1 M minoxidil (so in the source), 48 hours

## C[C@@H]1O[C@@H](O[C@H]2[C@H](OC(=O)[C@]34CCC(C)(C)C[C@H]3C3=CC[C@@H]5[C@@]6(C)C[C@H](O)[C@H](O[C@@H]7O[C@H](CO[C@@H]8O[C@H](CO)[C@@H](O)[C@H](O)[C@H]8O)[C@@H](O)[C@H](O)[C@H]7O)[C@@](C)(CO)[C@@H]6[C@H](O)C[C@@]5(C)[C@]3(C)CC4)OC[C@@H](O)[C@@H]2O)[C@H](O)[C@H](O)[C@H]1O[C@@H]1OC[C@@H](O)[C@H](O[C@@H]2OC[C@](O)(CO)[C@H]2O)[C@H]1O [arganine E]
[1]; 2 μM
  proliferation of HFDPCs: significantly promotes the proliferation

## Nc1cc(N2CCCCC2)nc(N)[n+]1[O-] [minoxidil, reference compound]
[2]
  influence on the body weight of the mouse: No influence on the body weight
[3]
  number of genes with decreased expression common among the minoxidil, maslinic acid and tieghemelin treatment groups: 316
  number of genes with increased expression common among the minoxidil, maslinic acid and tieghemelin treatment groups: 342

## arganine D
[1]; 2 μM
  proliferation of HFDPCs: significantly promotes the proliferation
[1]; 5 μM
  proliferation of HFDPCs: significantly promotes the proliferation
[1]; 10 μM
  proliferation of HFDPCs: significantly promotes the proliferation

## butyroside D
[1]; 2 μM
  proliferation of HFDPCs: significantly promotes the proliferation
[1]; 5 μM
  proliferation of HFDPCs: significantly promotes the proliferation
[1]; 10 μM
  proliferation of HFDPCs: significantly promotes the proliferation
[4]; 0.5 nM
  expression level of the FGF1 gene in the HFDPC: significantly increased
[4]; 5 nM
  expression level of the ALPL gene in the HFDPC: significantly increased
  expression level of the CTNNB1 gene in HFDPC: significantly increased
  expression level of the FGF1 gene in the HFDPC: significantly increased
[4]; 10 nM
  expression level of the ALPL gene in the HFDPC: significantly increased
  expression level of the CTNNB1 gene in HFDPC: significantly increased
  expression level of the FGF1 gene in the HFDPC: significantly increased
[4]; vs 0.1 μM minoxidil
  effect of increasing the expression level of the ALPL gene compared with minoxidil positive control (sentence in the FGF1 paragraph): more than the effect of the treatment with 0.1 μM minoxidil
[5]
  effect of increasing the expression level of the ALPL gene compared with minoxidil positive control: more than the effect of the treatment with 0.1 M minoxidil
  effect of increasing the expression level of the CTNNB1 gene compared with minoxidil positive control: more than the effect of the treatment with 0.1 M minoxidil
